{"source": "patent US20250108051A1", "about": "“THERAPEUTIC AGENT FOR CANCER” (TOHOKU UNIVERSITY, priority 2022, published 2025)", "assay_type_in_all_cases": "cell-based", "settings_in_all_cases": "ATRA 0, 1.0 or 10 μM; encorafenib and binimetinib 0 to 10 μM", "key": {"[1]": {"system": "8505C (BRAF V600E-mutated thyroid cancer cell line)", "experiment": "MTT assay, encorafenib + binimetinib with ATRA"}, "[2]": {"system": "WiDR (BRAF V600E-mutated colorectal cancer cell line)", "experiment": "MTT assay, encorafenib + binimetinib with retinoid", "experimental": "(§1) RKO cells were seeded on a 96-well plate with the number of cells of 1.5×10^3 cells/well, CO115 cells were seeded on a 96-well plate with the number of cells of 2.5×10^3 cells/well, and HT29 cells and WiDR cells were respectively seeded on 96-well plates with the number of cells of 6×10^3 cells/well. After incubation for about 24 hours until the cell density reached 40% to 60%, the drug was administered. After incubation at 37° C. for 72 hours, the MTT assay was performed using Cell Counting Kit-8 (Dojindo Laboratories, Kumamoto, Japan). To each well was added 10 μl of Cell Counting Kit-8 solution, the plates were placed in a culture vessel at 5% CO2 and 37° C. for 120 minutes to perform a color reaction, and then the absorbance at 450 nm was measured and evaluated with a microplate reader SpectraMax M2e (Molecular Devices, Sunnyvale, CA, USA). Cells administered with 0.1% DMSO were used as a control. The above was performed three or more times as independent experiments.\n(§2) In various kinds of colorectal cancer cell lines, the inhibition effect of a BRAF inhibitor (encorafenib) and an MEK inhibitor (binimetinib) for the viability of cells and the enhancement by ATRA were examined. […] The horizontal axis indicates component concentrations of encorafenib and binimetinib in a range of 0 μM to 10 μM, and the vertical axis indicates the cell viability when 0 μM, 1.0 μM, or 10 μM (each bar graph) of ATRA was administered. As shown in the drawing, encorafenib and binimetinib were used in an equal molar concentration.\n(§3) As the compounds for acting on a retinoid receptor, retinol, tamibarotene, and bexarotene among the retinoids were used. As the cell lines, the colorectal cancer cell lines including RKO, HT29, CO115, WiDR, COLO205, and LIM2405 described above were used. As the BRAF inhibitor and the MEK inhibitor to be used in combination, a component (EB) obtained by mixing encorafenib and binimetinib in equal amounts was used as in Test Example 2."}, "[3]": {"system": "HT29 (BRAF V600E-mutated colorectal cancer cell line)", "experiment": "MTT assay, encorafenib + binimetinib with retinoid", "experimental": "as §1, §2\nas §3, with “acting and” for “acting”, “tamibarotene,” for “tamibarotene, and”, “above-described” for “colorectal cancer”, “HT29,” for “HT29, CO115, WiDR, COLO205,”, “CO115” for “LIM2405 described above”\nas §3"}, "[4]": {"system": "CO115 (BRAF V600E-mutated colorectal cancer cell line)", "experiment": "MTT assay, encorafenib + binimetinib with retinoid", "experimental": "as §1, §2\nas §3, with “acting and” for “acting”, “tamibarotene,” for “tamibarotene, and”, “above-described” for “colorectal cancer”, “HT29,” for “HT29, CO115, WiDR, COLO205,”, “CO115” for “LIM2405 described above”\nas §3"}, "[5]": {"system": "RKO (BRAF V600E-mutated colorectal cancer cell line)", "experiment": "MTT assay, encorafenib + binimetinib with retinoid", "experimental": "as §1, §2\nas §3, with “acting and” for “acting”, “tamibarotene,” for “tamibarotene, and”, “above-described” for “colorectal cancer”, “HT29,” for “HT29, CO115, WiDR, COLO205,”, “CO115” for “LIM2405 described above”\nas §3"}}}
{"smiles": "CC1=C(/C=C/C(C)=C/C=C/C(C)=C/C(=O)O)C(C)(C)CCC1", "note": "[ATRA, all-trans retinoic acid]", "values": [{"measurement": "cell viability with encorafenib and binimetinib as a function of ATRA concentration", "setting": "[1]", "value": "the higher the concentration of ATRA is, the lower the cell viability is"}, {"measurement": "cell viability with encorafenib and binimetinib as a function of ATRA concentration", "setting": "[2]", "value": "the higher the concentration of ATRA is, the lower the cell viability is"}, {"measurement": "cell viability with encorafenib and binimetinib as a function of ATRA concentration", "setting": "[3]", "value": "the higher the concentration of ATRA is, the lower the cell viability is"}, {"measurement": "cell viability with encorafenib and binimetinib as a function of ATRA concentration", "setting": "[4]", "value": "the higher the concentration of ATRA is, the lower the cell viability is"}, {"measurement": "cell viability with encorafenib and binimetinib as a function of ATRA concentration", "setting": "[5]", "value": "the higher the concentration of ATRA is, the lower the cell viability is"}]}
